In patent US20050169948A1, “Method and compositions for treatment of acne vulgaris and acne rosacea” (priority 2004, published 2005):

How the values were obtained:
skin = details: concentrations 1.0% to 10%
[1] = test system: acne vulgaris or acne rosacea; experiment: Clinical studies of topical formulations in acne patients, compared to placebo or to nicotinamide alone; type: in vivo, human; details: over one thousand acne patients

SMILES | irritation on continuous or regular topical application (skin) | efficacy in treating acne vulgaris or acne rosacea compared to placebo [1]
O=C(O)c1cccnc1 [nicotinic acid] | too irritating | 
NC(=O)c1cccnc1 [nicotinamide] |  | modestly effective
